Here are results for 4 molecules from paper PMC7418496, “In Kluyveromyces lactis a Pair of Paralogous Isozymes Catalyze the First Committed Step of Leucine Biosynthesis in Either the Mitochondria or the Cytosol” (Frontiers in Microbiology, 2020).

One may read the IC50 as the concentration at which inhibition is half-maximal. A high value points to weaker potency. A word on the Km: it is the concentration of substrate that gives half-maximal velocity.

Data set [1] addresses T1, KlLeu4BIS (Kluyveromyces lactis, UniProt Q6CQU3).
T1 construct: gene KLLA0_D14201g; native untagged enzyme in whole cell extract of the Klleu4Δ single mutant; homodimer
The data set is described as follows: α-IPMS activity in whole cell extract, DTNB assay […] nm. In kind it is biochemical. The following applies: 0.25 mM acetyl-CoA, 10 mM α-KIV, 50 mM phosphate pH 7.5, 140 mM KCl, 4 mM MgCl2, 30 °C.

The target in data set [2] is T2, KlLeu4BIS (Kluyveromyces lactis, UniProt Q6CQU3).
T2 construct: gene KLLA0_D14201g; expressed in E. coli Rosetta 2 (DE3), Ni-NTA purified (tag not described); homodimer
T2 sequence (Q6CQU3 1-583): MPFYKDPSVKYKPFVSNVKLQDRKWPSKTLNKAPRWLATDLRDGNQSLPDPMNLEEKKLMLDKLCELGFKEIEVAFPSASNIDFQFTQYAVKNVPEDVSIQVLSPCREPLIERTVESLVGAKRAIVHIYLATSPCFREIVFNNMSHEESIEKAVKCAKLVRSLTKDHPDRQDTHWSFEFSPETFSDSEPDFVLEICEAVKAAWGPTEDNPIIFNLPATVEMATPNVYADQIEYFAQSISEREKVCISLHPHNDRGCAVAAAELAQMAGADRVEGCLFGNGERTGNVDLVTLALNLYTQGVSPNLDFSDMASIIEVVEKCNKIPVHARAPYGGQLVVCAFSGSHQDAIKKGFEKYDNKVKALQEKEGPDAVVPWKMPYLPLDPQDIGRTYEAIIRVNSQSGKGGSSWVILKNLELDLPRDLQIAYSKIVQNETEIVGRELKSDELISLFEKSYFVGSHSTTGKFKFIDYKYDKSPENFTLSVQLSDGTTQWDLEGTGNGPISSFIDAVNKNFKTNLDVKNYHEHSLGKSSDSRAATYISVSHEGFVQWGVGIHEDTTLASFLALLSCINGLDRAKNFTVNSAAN
The data set is described as follows: initial velocity inhibition kinetics, global fit. In kind it is biochemical. The following applies: read-out: Kis /. The source says: initial velocity inhibition kinetics, global fit on KlLeu4BIS

In data set [3] the target is T3, KlLeu4 (Kluyveromyces lactis, UniProt Q6CIW1).
T3 construct: gene KLLA0_F23529g; native untagged enzyme in whole cell extract of the Klleu4bisΔ single mutant; homodimer
Briefly: α-IPMS activity in whole cell extract, DTNB assay […] nm. The format is biochemical. The following applies: 0.25 mM acetyl-CoA, 10 mM α-KIV, 50 mM phosphate pH 7.5, 140 mM KCl, 4 mM MgCl2, 30 °C.

Data set [4] has as its target T4, KlLeu4 (Kluyveromyces lactis, UniProt Q6CIW1).
T4 construct: gene KLLA0_F23529g; expressed in E. coli BL21(DE3), Ni-NTA purified (tag not described); homodimer
T4 sequence (Q6CIW1 1-609): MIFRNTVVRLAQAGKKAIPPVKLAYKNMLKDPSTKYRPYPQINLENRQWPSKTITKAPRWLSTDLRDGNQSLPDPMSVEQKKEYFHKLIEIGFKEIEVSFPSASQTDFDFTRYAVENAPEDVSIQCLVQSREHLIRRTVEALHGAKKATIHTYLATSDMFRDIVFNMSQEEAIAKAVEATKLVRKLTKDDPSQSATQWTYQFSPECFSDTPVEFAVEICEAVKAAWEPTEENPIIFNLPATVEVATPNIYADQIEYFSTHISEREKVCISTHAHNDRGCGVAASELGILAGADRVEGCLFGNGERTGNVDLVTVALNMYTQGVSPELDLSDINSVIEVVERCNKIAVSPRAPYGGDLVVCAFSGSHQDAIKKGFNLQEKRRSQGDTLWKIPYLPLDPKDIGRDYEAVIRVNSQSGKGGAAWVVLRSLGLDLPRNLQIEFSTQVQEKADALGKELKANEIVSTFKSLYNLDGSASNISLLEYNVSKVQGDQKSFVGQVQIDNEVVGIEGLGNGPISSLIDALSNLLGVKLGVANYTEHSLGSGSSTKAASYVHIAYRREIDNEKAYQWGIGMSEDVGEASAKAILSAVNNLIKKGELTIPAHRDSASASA
Briefly: initial velocity inhibition kinetics, global fit. The format is biochemical. The following applies: read-out: Kis /. The source says:
initial velocity inhibition kinetics, global fit on KlLeu4

The target of data set [5] is T2, KlLeu4BIS. Briefly: initial velocity kinetics from kinetic global fit, ordered bi-bi. The format is biochemical. The following applies: kinetic dissociation constant; varied with α-KIV 0.01–0.25 mM; 50 mM phosphate pH 7.5, 140 mM KCl, 4 mM MgCl2, 30 °C, DTNB; read-out: Kia /. From the text: initial velocity kinetics from kinetic global fit, ordered bi-bi on KlLeu4BIS

For data set [6], the target named is T4, KlLeu4. Described as above. The format is biochemical. The following applies: kinetic dissociation constant; varied with α-KIV 0.002–0.08 mM; 50 mM phosphate pH 7.5, 140 mM KCl, 4 mM MgCl2, 30 °C, DTNB; read-out: Kia /. From the text:
initial velocity kinetics from kinetic global fit, ordered bi-bi on KlLeu4

Substrate in data set [7]: CC(C)C(=O)C(=O)O
The data set is described as follows: initial velocity kinetics, global fit, ordered bi-bi. The format is biochemical, Kluyveromyces lactis. To be noted: acetyl-CoA co-varied 0.008–0.1 mM, 50 mM phosphate pH 7.5, 140 mM KCl, 4 mM MgCl2, 30 °C, DTNB. The source says: (§1) initial velocity kinetics, global fit, ordered bi-bi on KlLeu4BIS

Substrate in data set [8]: CC(=O)SCCNC(=O)CCNC(=O)[C@H](O)C(C)(C)COP(=O)(O)OP(=O)(O)OC[C@H]1O[C@@H](n2cnc3c(N)ncnc32)[C@H](O)[C@@H]1OP(=O)(O)O
The description is as above. In kind it is biochemical, Kluyveromyces lactis. The following applies: α-KIV co-varied 0.01–0.25 mM, 50 mM phosphate pH 7.5, 140 mM KCl, 4 mM MgCl2, 30 °C, DTNB.
From the text: as §1

Substrate in data set [9]: CC(C)C(=O)C(=O)O
Described as above. In kind it is biochemical, Kluyveromyces lactis. To be noted: acetyl-CoA co-varied 0.002–0.1 mM, 50 mM phosphate pH 7.5, 140 mM KCl, 4 mM MgCl2, 30 °C, DTNB. The source says: (§2) initial velocity kinetics, global fit, ordered bi-bi on KlLeu4

Substrate in data set [10]: CC(=O)SCCNC(=O)CCNC(=O)[C@H](O)C(C)(C)COP(=O)(O)OP(=O)(O)OC[C@H]1O[C@@H](n2cnc3c(N)ncnc32)[C@H](O)[C@@H]1OP(=O)(O)O
The description is as above. In kind it is biochemical, Kluyveromyces lactis. To be noted: α-KIV co-varied 0.002–0.08 mM, 50 mM phosphate pH 7.5, 140 mM KCl, 4 mM MgCl2, 30 °C, DTNB.
From the text: as §2

With `CC(C)C[C@H](N)C(=O)O` [leucine], the results for the IC50 against KlLeu4BIS [1] and against KlLeu4 [3] were 37 µM and 20 µM, respectively. Besides, the Ki at KlLeu4BIS [2] was 31 ± 8 µM; on KlLeu4 [4] it was 34 ± 11 µM.

For `CC(=O)SCCNC(=O)CCNC(=O)[C@H](O)C(C)(C)COP(=O)(O)OP(=O)(O)OC[C@H]1O[C@@H](n2cnc3c(N)ncnc32)[C@H](O)[C@@H]1OP(=O)(O)O` [acetyl coenzyme A], the figures for the Kd at KlLeu4BIS [5] and on KlLeu4 [6] were 12 ± 7 µM and 17 ± 5 µM, respectively.

B1: KlLeu4BIS (Kluyveromyces lactis NRRL Y-1140) (protein)
chain: MPFYKDPSVKYKPFVSNVKLQDRKWPSKTLNKAPRWLATDLRDGNQSLPDPMNLEEKKLMLDKLCELGFKEIEVAFPSASNIDFQFTQYAVKNVPEDVSIQVLSPCREPLIERTVESLVGAKRAIVHIYLATSPCFREIVFNNMSHEESIEKAVKCAKLVRSLTKDHPDRQDTHWSFEFSPETFSDSEPDFVLEICEAVKAAWGPTEDNPIIFNLPATVEMATPNVYADQIEYFAQSISEREKVCISLHPHNDRGCAVAAAELAQMAGADRVEGCLFGNGERTGNVDLVTLALNLYTQGVSPNLDFSDMASIIEVVEKCNKIPVHARAPYGGQLVVCAFSGSHQDAIKKGFEKYDNKVKALQEKEGPDAVVPWKMPYLPLDPQDIGRTYEAIIRVNSQSGKGGSSWVILKNLELDLPRDLQIAYSKIVQNETEIVGRELKSDELISLFEKSYFVGSHSTTGKFKFIDYKYDKSPENFTLSVQLSDGTTQWDLEGTGNGPISSFIDAVNKNFKTNLDVKNYHEHSLGKSSDSRAATYISVSHEGFVQWGVGIHEDTTLASFLALLSCINGLDRAKNFTVNSAAN
notes: expressed in E. coli Rosetta 2 (DE3), Ni-NTA purified (tag not described); homodimer
For B1, the Km amounted to 0.055 ± 0.013 mM in data set [7] and 0.019 ± 0.005 mM in data set [8].

B2: KlLeu4 (Kluyveromyces lactis NRRL Y-1140) (protein)
chain: MIFRNTVVRLAQAGKKAIPPVKLAYKNMLKDPSTKYRPYPQINLENRQWPSKTITKAPRWLSTDLRDGNQSLPDPMSVEQKKEYFHKLIEIGFKEIEVSFPSASQTDFDFTRYAVENAPEDVSIQCLVQSREHLIRRTVEALHGAKKATIHTYLATSDMFRDIVFNMSQEEAIAKAVEATKLVRKLTKDDPSQSATQWTYQFSPECFSDTPVEFAVEICEAVKAAWEPTEENPIIFNLPATVEVATPNIYADQIEYFSTHISEREKVCISTHAHNDRGCGVAASELGILAGADRVEGCLFGNGERTGNVDLVTVALNMYTQGVSPELDLSDINSVIEVVERCNKIAVSPRAPYGGDLVVCAFSGSHQDAIKKGFNLQEKRRSQGDTLWKIPYLPLDPKDIGRDYEAVIRVNSQSGKGGAAWVVLRSLGLDLPRNLQIEFSTQVQEKADALGKELKANEIVSTFKSLYNLDGSASNISLLEYNVSKVQGDQKSFVGQVQIDNEVVGIEGLGNGPISSLIDALSNLLGVKLGVANYTEHSLGSGSSTKAASYVHIAYRREIDNEKAYQWGIGMSEDVGEASAKAILSAVNNLIKKGELTIPAHRDSASASA
notes: expressed in E. coli BL21(DE3), Ni-NTA purified (tag not described); homodimer
For the molecule B2, the results for the Km in data set [9] and in [10] were 0.025 ± 0.003 mM and 0.026 ± 0.003 mM, respectively.
